Results published in PMC6906431, “Selective small molecule PARG inhibitor causes replication fork stalling and cancer cell death” (Nature Communications, 2019).
Values joined by “and” are separate entries in the source; they are usually repeats but may differ in a detail not shown here. Equal entries are not always repeated.

Assays:
[1] = Sulforhodamine B (SRB) cytotoxicity assay; settings: human, A172 glioblastoma cells
Experimental: (§1) Normalized % viabilities are plotted against log concentration. Error bars show the percent coefficient of variation. […] Mann-Whitney test was used to generate the p-value. The DNA spread assay is the representation of two independently repeated experiments. Source Data are provided as a Source Data file.
(§2) Cells were plated in 96-well plates, treated as designated in reduced 5% FBS and fixed with trichloroacetic acid after 72 h, as previously described by[43]. […] Colorimetric or fluorescence analysis was performed in a FlexStation 3, using SoftMax Pro 7.0, Molecular Devices. Normalized graphs were generated with Prism 8 software, non-linear 4-parameter data fitting was performed for IC50 calculation.

[2] = system: A172 glioblastoma cells; experiment: Sulforhodamine B (SRB) cytotoxicity assay; settings: Homo sapiens, A 172, 72 h
Experimental: as §1, §2

[3] = system: MRC-5 cells; experiment: Sulforhodamine B (SRB) cytotoxicity assay; assay type: cell-based, human; settings: Homo sapiens, MRC5, 72 h
Experimental: Fig. 6 Selective inhibition of PARG by xanthine derivative JA2131. a Clonogenic survival assays of PC3, MDA-MB-231, and MCF-7 cells treated with PARGi. Cells were treated with either DMSO or 10 µM JA2131 for 2 h, irradiated with 3 Gy (MDA-MB-231 and MCF-7), 7 Gy (PC3) IR and grown for ~2 weeks, then colonies were fixed with methanol and stained with crystal violet. The results of three independent experiments are shown. Error bars = the standard error of the mean (SEM). b dose-response of JA2131 in MDA-MB-231 cells with and without IR. Cells were treated with designated concentrations of JA2131 for 2 h and then either left untreated or exposed to 3 Gy IR and allowed to recover for 1 h before lysis. Total protein was immunoblotted with anti-PAR antibody (upper panel), stripped and reprobed with anti-PCNA as a loading control. c MDA-MB-231 cells with stable scrambled shRNA (WT) or stable PARG shRNA, knockdown (KD), were treated with 5 μM JA2131 for 2 h, lysed and then total lysates were immunoblotted for anti-PAR (upper panel) followed by anti-PARG (upper middle panel), anti-PARP1 (lower middle panel) and anti-actin (bottom panel) antibody. […] Stable cells with scramble shRNA (control) and shPARG (PARG-KD) cells were treated with an increasing concentration of JA2131 for growth inhibitory IC50 determination. The data was normalized against 100% survival at the lowest inhibitor concentration. Error bars show the percent coefficient of variation. Equivalent concentrations of DMSO were used as a negative control. e The cytotoxicity of JA2131 along with PDD, Veliparib and Doxorubicin against MRC-5 cells. Error bars show the percent coefficient of variation. f CETSA for in-cell JA2131 target engagement. Normalized anti-PARG western blot intensities of three independent experiments were fitted as above and the estimated aggregation temperature (Tagg) is shown in the tabulated insert. Source Data are provided as a Source Data file.

[4] = system: MDA-MB-231 cells; experiment: Clonogenic survival assay; assay type: cell-based, human; settings: 10 µM JA2131 2 h; 3 Gy IR; ~2 weeks
[5] = molecular target: hPARP1 (Homo sapiens, UniProt P09874); experiment: In vitro PARP1 auto-PARylation; settings: inhibitor 25 – 100 µM; 25 µM NAD+
hPARP1, sequence (P09874 whole entry): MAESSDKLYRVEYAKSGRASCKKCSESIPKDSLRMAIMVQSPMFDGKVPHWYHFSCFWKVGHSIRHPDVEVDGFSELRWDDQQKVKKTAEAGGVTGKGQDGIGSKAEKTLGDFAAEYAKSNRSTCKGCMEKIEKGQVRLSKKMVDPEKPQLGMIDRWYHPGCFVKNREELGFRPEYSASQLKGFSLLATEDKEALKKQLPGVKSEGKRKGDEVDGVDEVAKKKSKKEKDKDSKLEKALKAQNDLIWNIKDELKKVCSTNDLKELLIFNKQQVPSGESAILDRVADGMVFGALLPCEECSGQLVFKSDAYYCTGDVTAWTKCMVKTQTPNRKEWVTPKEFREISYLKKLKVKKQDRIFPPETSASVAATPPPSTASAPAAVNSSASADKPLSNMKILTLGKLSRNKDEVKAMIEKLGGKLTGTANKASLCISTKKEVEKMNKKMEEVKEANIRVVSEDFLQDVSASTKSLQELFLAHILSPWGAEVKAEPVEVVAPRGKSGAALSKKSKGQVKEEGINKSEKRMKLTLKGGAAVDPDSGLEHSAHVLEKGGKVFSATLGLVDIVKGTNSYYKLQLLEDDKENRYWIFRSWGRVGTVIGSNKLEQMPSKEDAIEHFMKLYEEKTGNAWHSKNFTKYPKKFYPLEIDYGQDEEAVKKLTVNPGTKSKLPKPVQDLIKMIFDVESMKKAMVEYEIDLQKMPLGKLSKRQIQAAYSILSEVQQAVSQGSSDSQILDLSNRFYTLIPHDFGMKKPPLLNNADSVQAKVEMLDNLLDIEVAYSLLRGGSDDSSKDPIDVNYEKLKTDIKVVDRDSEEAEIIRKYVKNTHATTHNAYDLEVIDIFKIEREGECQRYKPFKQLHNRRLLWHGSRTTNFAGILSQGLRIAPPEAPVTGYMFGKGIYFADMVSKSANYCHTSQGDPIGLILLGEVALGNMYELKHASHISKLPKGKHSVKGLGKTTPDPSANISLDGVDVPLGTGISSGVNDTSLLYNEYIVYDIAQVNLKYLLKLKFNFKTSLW

[6] = molecular target: T1, Human PARG (Homo sapiens, UniProt Q86W56); experiment: Gel-based PARG activity assay; assay type: biochemical
T1 construct: The human PARG (hPARG) catalytic domain (residues 389–976) was cloned in pET28a (Novagen); His-tag (N); made in house; host or cells: E. coli Rosetta
T1 sequence (Q86W56 389-976): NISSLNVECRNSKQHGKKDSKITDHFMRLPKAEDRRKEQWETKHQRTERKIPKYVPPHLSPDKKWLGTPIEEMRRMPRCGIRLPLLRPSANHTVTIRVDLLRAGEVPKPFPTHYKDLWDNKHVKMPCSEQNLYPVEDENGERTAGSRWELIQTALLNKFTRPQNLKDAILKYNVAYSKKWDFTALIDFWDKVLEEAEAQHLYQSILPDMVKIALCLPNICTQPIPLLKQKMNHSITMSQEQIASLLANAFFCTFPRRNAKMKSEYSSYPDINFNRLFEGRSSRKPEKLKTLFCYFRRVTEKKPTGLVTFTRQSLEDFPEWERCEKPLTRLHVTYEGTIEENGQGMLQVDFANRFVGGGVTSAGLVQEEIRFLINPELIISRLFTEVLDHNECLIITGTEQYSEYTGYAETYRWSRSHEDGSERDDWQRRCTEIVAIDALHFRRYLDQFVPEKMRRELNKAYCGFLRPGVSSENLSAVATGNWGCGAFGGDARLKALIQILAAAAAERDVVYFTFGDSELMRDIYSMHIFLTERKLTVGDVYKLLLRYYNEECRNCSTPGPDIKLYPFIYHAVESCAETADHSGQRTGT
Experimental: PARP1C (2 μM) is enzymatically auto-modified in a reaction containing the PARP1 DBD (2 μM), a 24 mer nicked DNA oligo (2 μM), and NAD^+ (300 μM) for 1 h at 37 °C, as described previously. Human PARG^389–976 (1 nM) was pre-incubated with compounds for 1 h at room temperature. The reaction was initiated by the addition of PARylated PARP1 (final concentration of 500 nM) and quenched after 30 min incubation at room temperature by adding SDS-PAGE sample buffer. The gel was visualized by sypro-ruby staining[18] and the retained PARylated PARP1C species were quantified using ImageJ[59]. PARylated PARP1C that migrates slower than unmodified PARP1C was quantified. […] The IC50 values were determined by fitting the dose-response data for each compound to a four-parameter logistic equation using SigmaPlot (Systat Software Inc.).
To test the specificity of JA2131, human PARG^389–976 (1 nM) was pre-incubated with JA2131 (5, 10, and 20 μM) in the presence and absence of 0.1% Triton-X 100 or 0.1 mg/ml BSA for 1 h at room temperature. The reaction was initiated, quenched, visualized, and quantified as described above. […]
PARG activity assay. […]
PARP1 (500 nM). The reaction was quenched after a 30 -minu te in cu ba tion a t roo m te mpe ra tu re by adding SDS-PA GE sa mp le bu f fe r. PARylated PARP1C runs as a smear on SDS -PAGE that is reduced to a single band by PARG treatment. […]
2). (b) Qu an t if ica t ion o f the dose-response PARG inhibition by JA2 -3 using the gel-based PARG activity assay. hPARG (1 nM) was preincubated with increasing concentrations (0.032 – 1 µM) of JA2-3 f o r 1 hour at room temperature before PARylated PARP1C (500 nM) was added. The reaction was quenched after a 30-minu te incubation at room temperature. PARylated PARP1C migrates slower than unmodified PARP1C and was quantified using ImageJ. […] The rate of the PARG-dependent signal loss in the TR-FRET PAR turnover assay is not equivalent to the steady-state rate of PAR turnover, because the TR-FRET assay can’t detect signal loss until the length of PAR chains become shorter than 7 ADP-ribose units. Therefore, we used the gel-based PARG activity assay to accurately determine the IC50 values throughout the manuscript .

potency difference JA2131 (6´-thiocarbonyl) vs JA2120 (6´-carbonyl) [6]: more than 50 fold
inhibition at 0.0488281 µM ([6]; [L] 0.0488281 uM): 13.8%
inhibition at 0.0976562 µM ([6]; [L] 0.0976562 uM): 26.2%
inhibition at 0.195312 µM ([6]; [L] 0.195312 uM): 34.6%
inhibition at 0.390625 µM ([6]; [L] 0.390625 uM): 58.8%
inhibition at 0.78125 µM ([6]; [L] 0.78125 uM): 62.5%
inhibition at 1.5625 µM ([6]; [L] 1.5625 uM): 75.5%
inhibition at 3.125 µM ([6]; [L] 3.125 uM): 84.3%
inhibition at 6.25 µM ([6]; [L] 6.25 uM): 98.7%
inhibition at 12.5 µM ([6]; [L] 12.5 uM): 99.5%
inhibition at 25 µM ([6]; [L] 25 uM): 104%
inhibition at 50 µM ([6]; [L] 50 uM): 94%
IC50 ([6]; hPARG 1 nM, PARylated PARP1C 500 nM, 30 min): 0.4 µM
SMILES: Cn1c(=S)c2[nH]c(SCCN3CCOCC3)nc2n(C)c1=O [JA2131]
viability at 72 h, 0.244 µM [1]: 100%
viability at 72 h, 0.488 µM [1]: 98.3%
viability at 72 h, 0.977 µM [1]: 99.4%
viability at 72 h, 1.95 µM [1]: 101%
viability at 72 h, 3.91 µM [1]: 104%
viability at 72 h, 7.82 µM [1]: 96.7%
viability at 72 h, 15.6 µM [1]: 95.9%
viability at 72 h, 31.3 µM [1]: 78.7%
viability at 72 h, 62.5 µM [1]: 53.3%
viability at 72 h, 125 µM [1]: 16.6%
viability at 72 h, 250 µM [1]: 14.4%
viability at 72 h, 500 µM [1]: 13.5%
IC50 [2]: 55.3 ± 7.9 µM
IC50 [3]: 132 ± 35.9 µM
clonogenic survival (Exp-1 to Exp-4) [4]: 45.2569 and 36.8075 and 26.8698 and 36.3114
inhibition of PARP1 activation (PAR synthesis) [5]: did not inhibit PARP1 activation up to 100 μM
effect of detergent or nonspecific protein on PARG inhibition ([6]; JA2131 5, 10, 20 μM, 0.1% Triton-X 100 or 0.1 mg/ml BSA): Neither the addition of Triton-X 100 nor BSA significantly altered the inhibitory potency
